Structures are written as SMILES. pKi: −log10 of the molar value. Structures can show the parent of a compound that is named as a salt.

For assay [1], the target named is purified human plasma kallikrein (Homo sapiens (Human), UniProt P03952). Nature of the assay: biochemical. It is filed as biochemical. Conditions: read-out: Plasma Kallikrein Ki.
The target in assay [2] is purified human Factor XIa (Homo sapiens (Human), UniProt P03951). Nature of the assay: biochemical. It is filed as biochemical. The following applies: read-out: Factor XIa Ki.
Chain of purified human Factor XIa (P03951 whole entry, looked up): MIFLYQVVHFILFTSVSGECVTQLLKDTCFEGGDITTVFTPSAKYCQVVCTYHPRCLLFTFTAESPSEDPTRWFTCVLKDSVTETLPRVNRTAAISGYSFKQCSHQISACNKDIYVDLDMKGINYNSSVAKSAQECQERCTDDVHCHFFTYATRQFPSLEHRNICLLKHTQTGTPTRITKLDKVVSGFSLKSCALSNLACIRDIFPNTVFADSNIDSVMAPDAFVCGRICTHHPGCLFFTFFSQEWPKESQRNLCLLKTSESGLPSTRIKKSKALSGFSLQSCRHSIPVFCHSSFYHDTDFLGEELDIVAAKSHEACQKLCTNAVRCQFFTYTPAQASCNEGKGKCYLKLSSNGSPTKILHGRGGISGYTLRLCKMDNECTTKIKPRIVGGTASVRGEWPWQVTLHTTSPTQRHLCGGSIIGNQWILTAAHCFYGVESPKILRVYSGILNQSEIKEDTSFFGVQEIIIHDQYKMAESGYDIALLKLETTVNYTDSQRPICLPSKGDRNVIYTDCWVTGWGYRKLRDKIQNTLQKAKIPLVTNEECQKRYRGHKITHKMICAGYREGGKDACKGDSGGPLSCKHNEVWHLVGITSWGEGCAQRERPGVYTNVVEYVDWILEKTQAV
Chain of purified human Factor XIa (P03951 whole entry partner, looked up): as the sequence (P03951 whole entry, looked up) above

Chain of purified human plasma kallikrein (P03952 whole entry, looked up): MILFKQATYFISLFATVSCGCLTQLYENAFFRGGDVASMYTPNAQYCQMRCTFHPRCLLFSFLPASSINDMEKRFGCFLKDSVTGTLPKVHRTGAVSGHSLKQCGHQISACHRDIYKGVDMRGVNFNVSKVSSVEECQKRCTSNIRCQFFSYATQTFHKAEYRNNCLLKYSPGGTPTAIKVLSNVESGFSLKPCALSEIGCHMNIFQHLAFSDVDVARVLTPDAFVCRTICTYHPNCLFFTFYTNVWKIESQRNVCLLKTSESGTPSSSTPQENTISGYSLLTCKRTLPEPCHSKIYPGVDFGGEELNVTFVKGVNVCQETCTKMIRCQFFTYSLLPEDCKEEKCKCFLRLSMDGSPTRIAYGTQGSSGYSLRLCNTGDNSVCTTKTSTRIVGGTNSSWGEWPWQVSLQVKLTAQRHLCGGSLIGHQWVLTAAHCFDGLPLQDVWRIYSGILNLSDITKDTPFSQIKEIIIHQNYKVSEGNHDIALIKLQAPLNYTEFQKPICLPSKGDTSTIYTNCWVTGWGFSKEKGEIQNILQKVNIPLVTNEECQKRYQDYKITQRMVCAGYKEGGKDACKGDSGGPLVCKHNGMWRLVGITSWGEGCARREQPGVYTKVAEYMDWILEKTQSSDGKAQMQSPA
Chain of purified human plasma kallikrein (P03952 whole entry partner, looked up): as the sequence (P03952 whole entry, looked up) above

In general, pKi refers to −log10 of the Ki, conventionally taken in molar units. In the case of `COC(=O)Nc1ccc2c(c1)NC(=O)[C@H](C)CCC[C@H](N1CCC(c3c(OC(F)F)ccc(Cl)c3F)=CC1=O)c1cc-2ccn1` [Example 32, Methyl N-[(10R,14S)-14-{4-[3-chloro-6-(difluoromethoxy)-2-fluorophenyl]-6-oxo-1,2,3,6-tetrahydropyridin-1-yl}-10-methyl-9-oxo-8,16-diazatricyclo[13.3.1.0^2,7]nonadeca-1(19),2,4,6,15,17-hexaen-5-yl]carbamate, TFA salt], the pKi was 8.22 in assay [1] and 10.22 in assay [2].

As for `C[C@@H]1CCC[C@H](N2CCC(c3c(C#N)ccc(Cl)c3F)=CC2=O)c2cc(ccn2)-c2ccc(C(N)=O)cc2NC1=O` [Example 33, (10R,14S)-14-[4-(3-Chloro-6-cyano-2-fluorophenyl)-6-oxo-1,2,3,6-tetrahydropyridin-1-yl]-10-methyl-9-oxo-8,16-diazatricyclo[13.3.1.0^2,7]nonadeca-1(19),2,4,6,15,17-hexaene-5-carboxamide, TFA salt], the pKi in assay [1] was 8.52; in assay [2], 8.69.

As for `COC(=O)Nc1ccc2c(c1)NC(=O)[C@H](C)CCC[C@H](N1CCC(c3cc(Cl)ccc3C(F)(F)F)=CC1=O)c1cc-2ccn1` [Example 36, Methyl N-[(10R,14S)-14-{4-[5-chloro-2-(trifluoromethyl)phenyl]-6-oxo-1,2,3,6-tetrahydropyridin-1-yl}-10-methyl-9-oxo-8,16-diazatricyclo[13.3.1.0^2,7]nonadeca-1(19),2,4,6,15,17-hexaen-5-yl]carbamate, TFA salt], the pKi in assay [1] is 8.10; in assay [2], 10.05.

On to `Cc1nnc(Nc2ccc3c(c2)NC(=O)[C@H](C)CCC[C@H](N2CCC(c4c(F)ccc(Cl)c4F)=CC2=O)c2ccnc-3c2)o1` [Example 37, (10R,14S)-14-[4-(3-Chloro-2,6-difluorophenyl)-6-oxo-1,2,3,6-tetrahydropyridin-1-yl]-10-methyl-5-[(5-methyl-1,3,4-oxadiazol-2-yl)amino]-8,18-diazatricyclo[13.3.1.0^2,7]nonadeca-1(19),2(7),3,5,15,17-hexaen-9-one, TFA salt], for which the pKi in assay [1] was 9.00; in assay [2] it was 9.06.

In the case of `CC1CCC[C@H](N2CCC(c3c(Br)ccc(Cl)c3F)=CC2=O)c2cc(ccn2)-c2ccc(-c3nnc[nH]3)cc2NC1=O` (stereo partly drawn) [Example 38, (14S)-14-[4-(6-Bromo-3-chloro-2-fluorophenyl)-6-oxo-1,2,3,6-tetrahydropyridin-1-yl]-10-methyl-5-(4H-1,2,4-triazol-3-yl)-8,16-diazatricyclo[13.3.1.0^2,7]nonadeca-1(19),2(7),3,5,15,17-hexaen-9-one, TFA salt], the pKi in assay [1] is 8.22; in assay [2], 8.56.

Regarding `C[C@@H]1CCC[C@H](N2CCC(c3c(F)ccc(Cl)c3F)=CC2=O)c2cc(ccn2)-c2ccc(Nc3nnc(C4CC4)o3)cc2NC1=O` [Example 39, (10R,14S)-14-[4-(3-Chloro-2,6-difluorophenyl)-6-oxo-1,2,3,6-tetrahydropyridin-1-yl]-5-[(5-cyclopropyl-1,3,4-oxadiazol-2-yl)amino]-10-methyl-8,16-diazatricyclo[13.3.1.0^2,7]nonadeca-1(19),2(7),3,5,15,17-hexaen-9-one, TFA salt], the pKi in assay [1] was 8.70; in assay [2], 9.17.

Turning to `COCc1nnc(Nc2ccc3c(c2)NC(=O)[C@H](C)CCC[C@H](N2CCC(c4c(F)ccc(Cl)c4F)=CC2=O)c2cc-3ccn2)o1` [Example 41, (10R,14S)-14-[4-(3-Chloro-2,6-difluorophenyl)-6-oxo-1,2,3,6-tetrahydropyridin-1-yl]-5-{[5-(methoxymethyl)-1,3,4-oxadiazol-2-yl]amino}-10-methyl-8,16-diazatricyclo[13.3.1.0^2,7]nonadeca-1(19),2,4,6,15,17-hexaen-9-one, TFA salt], the figures for the pKi in assay [1] and in assay [2] were 8.70 and 9.16, respectively.

In the case of `C[C@@H]1CCC[C@H](N2CCC(c3c(Br)ccc(Cl)c3F)=CC2=O)c2cc(ccn2)-c2ccccc2NC1=O` [Example 45, (10R,14S)-14-[4-(6-Bromo-3-chloro-2-fluorophenyl)-6-oxo-1,2,3,6-tetrahydropyridin-1-yl]-10-methyl-8,16-diazatricyclo[13.3.1.0^2,7]nonadeca-1(19),2,4,6,15,17-hexaen-9-one, TFA salt], the pKi is 8.15 in assay [1] and 8.68 in assay [2].

For the compound `C[C@@H]1CCC[C@H](N2CCC(c3c(C#N)ccc(C#N)c3F)=CC2=O)c2cc(ccn2)-c2ccccc2NC1=O` [Example 46, (10R,14S)-14-[4-(3,6-Dicyano-2-fluorophenyl)-6-oxo-1,2,3,6-tetrahydropyridin-1-yl]-10-methyl-8,16-diazatricyclo[13.3.1.0^2,7]nonadeca-1(19),2,4,6,15,17-hexaen-9-one, TFA salt], the pKi in assay [1] is 6.17; in assay [2], 6.49.

`C[C@@H]1CCC[C@H](N2CCC(c3cccc(Cl)c3F)=CC2=O)c2cc(ccn2)-c2ccccc2NC1=O` [Example 47, (10R,14S)-14-[4-(3-Chloro-2-fluorophenyl)-6-oxo-1,2,3,6-tetrahydropyridin-1-yl]-10-methyl-8,16-diazatricyclo[13.3.1.0^2,7]nonadeca-1(19),2,4,6,15,17-hexaen-9-one, TFA salt]: the pKi in assay [1] is 7.18; in assay [2] it was 7.06.

Regarding `C[C@@H]1CCC[C@H](N2CCC(c3c(C#N)ccc(Cl)c3F)=CC2=O)c2cc(ccn2)-c2ccccc2NC1=O` [Example 49, 4-Chloro-3-fluoro-2-{1-[(10R,14S)-10-methyl-9-oxo-8,16-diazatricyclo[13.3.1.0^2,7]nonadeca-1(19),2,4,6,15,17-hexaen-14-yl]-6-oxo-1,2,3,6-tetrahydropyridin-4-yl}benzonitrile, TFA salt], the values for the pKi in assay [1] and in assay [2] were 8.52 and 8.97, respectively.

With `C[C@@H]1CCC[C@H](N2CCC(c3c(F)cccc3C#N)=CC2=O)c2cc(ccn2)-c2ccccc2NC1=O` [Example 50, 3-Fluoro-2-{1-[(10R,14S)-10-methyl-9-oxo-8,16-diazatricyclo[13.3.1.0^2,7]nonadeca-1(19),2,4,6,15,17-hexaen-14-yl]-6-oxo-1,2,3,6-tetrahydropyridin-4-yl}benzonitrile, TFA salt], the negative logarithm of the Ki (pKi) in assay [1] is 6.89; in assay [2] it was 6.99.

`C[C@@H]1CCC[C@H](N2CCC(c3c(C4CC4)ccc(Cl)c3F)=CC2=O)c2cc(ccn2)-c2ccccc2NC1=O` [Example 52, (10R,14S)-14-[4-(3-Chloro-6-cyclopropyl-2-fluorophenyl)-6-oxo-1,2,3,6-tetrahydropyridin-1-yl]-10-methyl-8,16-diazatricyclo[13.3.1.0^2,7]nonadeca-1(19),2,4,6,15,17-hexaen-9-one, TFA salt]: the figures for the negative logarithm of the Ki (pKi) in assay [1] and in assay [2] were 6.71 and 7.34, respectively.

In the case of `C[C@@H]1CCC[C@H](N2CCC(c3c(F)ccc(Cl)c3F)=CC2=O)c2cc(ccn2)-c2ccc(NC(=O)OCCO)cc2NC1=O` [Example 54, 2-Hydroxyethyl N-[(10R,14S)-14-[4-(3-chloro-2,6-difluorophenyl)-6-oxo-1,2,3,6-tetrahydropyridin-1-yl]-10-methyl-9-oxo-8,16-diazatricyclo[13.3.1.0^2,7]nonadeca-1(19),2,4,6,15,17-hexaen-5-yl]carbamate, TFA salt], the pKi is 9.00 in assay [1] and 10.10 in assay [2].

In the case of `C[C@@H]1CCC[C@H](N2CCC(c3c(-c4cn[nH]c4)ccc(Cl)c3F)=CC2=O)c2cc(ccn2)-c2ccccc2NC1=O` [Example 55, (10R,14S)-14-{4-[3-Chloro-2-fluoro-6-(1H-pyrazol-4-yl)phenyl]-6-oxo-1,2,3,6-tetrahydropyridin-1-yl}-10-methyl-8,16-diazatricyclo[13.3.1.0^2,7]nonadeca-1(19),2,4,6,15,17-hexaen-9-one, TFA salt], the negative-log Ki (pKi) in assay [1] was 7.72; in assay [2] it was 8.56.

Regarding `C[C@@H]1CCC[C@H](N2CCC(c3c(-c4ccncc4)ccc(Cl)c3F)=CC2=O)c2cc(ccn2)-c2ccccc2NC1=O` [Example 56, (10R,14S)-14-{4-[3-Chloro-2-fluoro-6-(pyridin-4-yl)phenyl]-6-oxo-1,2,3,6-tetrahydropyridin-1-yl}-10-methyl-8,16-diazatricyclo[13.3.1.0^2,7]nonadeca-1(19),2,4,6,15,17-hexaen-9-one, TFA salt], the pKi was 6.86 in assay [1] and 7.78 in assay [2].

`C[C@@H]1CCC[C@H](N2CCC(c3c(-c4ccccc4)ccc(Cl)c3F)=CC2=O)c2cc(ccn2)-c2ccccc2NC1=O` [Example 57, (10R,14S)-14-[4-(3-Chloro-2-fluoro-6-phenylphenyl)-6-oxo-1,2,3,6-tetrahydropyridin-1-yl]-10-methyl-8,16-diazatricyclo[13.3.1.0^2,7]nonadeca-1(19),2,4,6,15,17-hexaen-9-one, TFA salt]: the results for the pKi in assay [1] and in assay [2] were 6.45 and 7.45, respectively.

In the case of `C[C@@H]1CCC[C@H](N2CCC(c3c(-c4cccnc4)ccc(Cl)c3F)=CC2=O)c2cc(ccn2)-c2ccccc2NC1=O` [Example 58, (10R,14S)-14-{4-[3-Chloro-2-fluoro-6-(pyridin-3-yl)phenyl]-6-oxo-1,2,3,6-tetrahydropyridin-1-yl}-10-methyl-8,16-diazatricyclo[13.3.1.0^2,7]nonadeca-1(19),2,4,6,15,17-hexaen-9-one, TFA salt], the pKi was 6.75 in assay [1] and 7.82 in assay [2].

Turning to `Cc1nn(C)cc1-c1ccc(Cl)c(F)c1C1=CC(=O)N([C@H]2CCC[C@@H](C)C(=O)Nc3ccccc3-c3ccnc2c3)CC1` [Example 60, (10R,14S)-14-{4-[3-Chloro-6-(1,3-dimethyl-1H-pyrazol-4-yl)-2-fluorophenyl]-6-oxo-1,2,3,6-tetrahydropyridin-1-yl}-10-methyl-8,16-diazatricyclo[13.3.1.0^2,7]nonadeca-1(19),2,4,6,15,17-hexaen-9-one, TFA salt], the pKi in assay [1] was 5.96; in assay [2], < 6.39.

These data come from US9409908B2 (priority 2012, dated 2016).
